Biological target: T1, PARP7 (TIPARP) (Homo sapiens, UniProt Q7Z3E1)
T1 sequence (Q7Z3E1 1-657): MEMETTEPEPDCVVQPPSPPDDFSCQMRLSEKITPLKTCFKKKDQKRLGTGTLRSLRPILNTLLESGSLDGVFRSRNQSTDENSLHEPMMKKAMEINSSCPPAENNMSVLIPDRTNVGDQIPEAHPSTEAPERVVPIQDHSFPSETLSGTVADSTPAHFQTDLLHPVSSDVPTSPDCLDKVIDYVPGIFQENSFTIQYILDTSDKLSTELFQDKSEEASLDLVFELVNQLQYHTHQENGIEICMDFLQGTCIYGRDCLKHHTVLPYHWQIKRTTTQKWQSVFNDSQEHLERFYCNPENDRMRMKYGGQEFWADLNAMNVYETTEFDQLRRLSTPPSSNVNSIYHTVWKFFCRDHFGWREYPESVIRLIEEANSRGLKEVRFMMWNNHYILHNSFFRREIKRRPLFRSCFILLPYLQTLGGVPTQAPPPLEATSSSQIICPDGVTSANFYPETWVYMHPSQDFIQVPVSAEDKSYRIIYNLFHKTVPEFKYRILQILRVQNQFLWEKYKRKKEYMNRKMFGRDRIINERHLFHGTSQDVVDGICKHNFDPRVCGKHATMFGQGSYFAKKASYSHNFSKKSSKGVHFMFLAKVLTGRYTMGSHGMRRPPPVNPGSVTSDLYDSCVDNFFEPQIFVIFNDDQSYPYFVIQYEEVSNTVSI
Test: Enzymatic assay for inhibition of PARP7: TR-FRET displacement of biotinylated Probe A from the TIPARP active site
Format: binding
Conditions: 6 nM TIPARP, 2 nM Probe A, 25° C., 30 min incubation with test compound
Description: Enzymatic Assay for Inhibition of PARP7
Displacement of Probe A, a biotinylated probe binding to the TIPARP active site, was measured using a time-resolved fluorescence energy transfer (TR-FRET) assay. 20 nL of a dose response curve of each test compound was spotted in black 384-well polystyrene proxiplates (Perkin Elmer) using a Mosquito (TTP Labtech). Reactions were performed in a 8 μL volume by adding 6 μL of TIPARP and Probe A in assay buffer (20 mM HEPES pH=8, 100 mM NaCl, 0.1% bovine serum albumin, 2 mM DTT and 0.002% Tween20), incubating with test compound at 25° C. for 30 min, then adding 2 μL of ULight-anti 6xHis and LANCE Eu-W1024 labeled streptavidin (Perkin Elmer). The final concentrations of TIPARP and Probe A were 6 nM and 2 nM, respectively. The final concentration of ULight-anti 6xHis and LANCE Eu-W1024 labeled streptavidin were 4 nM and 0.25 nM, respectively. Reactions were incubated at 25° C. for an additional 30 min, then read on an Envision platereader equipped with a LANCE/DELFIA top mirror (Perkin Elmer) using excitation of 320 nm and emission of 615 nm and […] with a 90 μs delay. The ratio of the 665/615 nm emission were calculated for each well to determine the amount of complex of TIPARP and Probe A in each well. Control wells containing a negative control of 0.25% DMSO vehicle or a positive control of 100 μM 5-(5-(piperidin-4-yloxy)isoindolin-2-yl)-4-(trifluoromethyl)pyridazin-3(2H)-one were used to calculate the % inhibition as described below:
where TRFempd is the TR-FRET ratio from the compound treated well, TRFmin is the TR-FRET ratio from the 5-(5-(piperidin-4-yloxy)isoindolin-2-yl)-4-(trifluoromethyl)pyridazin-3(2H)-one-treated positive control well and TRFmax is the TR-FRET ratio from the DMSO-treated negative control well.
The % inhibition values were plotted as a function of compound concentration and the following 4-parameter fit was applied to derive the IC50 values:
where top and bottom are normally allowed to float, but may be fixed at 100 or 0 respectively in a 3-parameter fit. The Hill Coefficient is normally allowed to float but may also be fixed at 1 in a 3-parameter fit. Y is the % inhibition and X is the compound concentration.

Compound | IC50 [nM]
COC[C@@H](COCC(O)C(=O)N1CCN(c2ncc(C(F)(F)F)cn2)CC1)Nc1cn[nH]c(=O)c1C(F)(F)F (stereo partly drawn) [Example 14, 5-(((2S)-1-(2-hydroxy-3-oxo-3-(4-(5-(trifluoromethyl)pyrimidin-2-yl)piperazin-1-yl)propoxy)-3-methoxypropan-2-yl)amino)-4-(trifluoromethyl)pyridazin-3(2H)-one] | < 100
CC[C@@H](COCC(O)C(=O)N1CCN(c2ncc(C(F)(F)F)cn2)CC1)Nc1cn[nH]c(=O)c1C(F)(F)F (stereo partly drawn) [Example 15, 5-(((2S)-1-(2-hydroxy-3-oxo-3-(4-(5-(trifluoromethyl)pyrimidin-2-yl)piperazin-1-yl)propoxy)butan-2-yl)amino)-4-(trifluoromethyl)pyridazin-3(2H)-one] | < 100
O=C(C(O)COC[C@@H]1CCN1c1cn[nH]c(=O)c1C(F)(F)F)N1CCN(c2ncc(C(F)(F)F)cn2)CC1 (stereo partly drawn) [Example 18, 5-((2S)-2-((2-hydroxy-3-oxo-3-(4-(5-(trifluoromethyl)pyrimidin-2-yl)piperazin-1-yl)propoxy)methyl)azetidin-1-yl)-4-(trifluoromethyl)pyridazin-3(2H)-one] | < 100

Further lines, results first:

IC50 [nM] | Compound
< 100 | O=C([C@H](O)COC[C@H](COC(F)(F)F)Nc1cn[nH]c(=O)c1C(F)(F)F)N1CCN(c2ncc(C(F)(F)F)cn2)CC1 [Example 16A, 5-(((R)-1-((R)-2-hydroxy-3-oxo-3-(4-(5-(trifluoromethyl)pyrimidin-2-yl)piperazin-1-yl)propoxy)-3-(trifluoromethoxy)propan-2-yl)amino)-4-(trifluoromethyl)pyridazin-3(2H)-one]
< 100 | O=C([C@@H](O)COC[C@H](COC(F)(F)F)Nc1cn[nH]c(=O)c1C(F)(F)F)N1CCN(c2ncc(C(F)(F)F)cn2)CC1 [Example 16B, 5-(((R)-1-((S)-2-hydroxy-3-oxo-3-(4-(5-(trifluoromethyl)pyrimidin-2-yl)piperazin-1-yl)propoxy)-3-(trifluoromethoxy)propan-2-yl)amino)-4-(trifluoromethyl)pyridazin-3(2H)-one]
